# Laboratory results: patent US20220267380A1, “Glycopeptides Increasing Lipid Synthesis” (TFCHEM, priority 2019, published 2022)
# Tested on: normal human dermal fibroblasts (NHDF)
# Assay: Gene expression in NHDF, full transcriptome analysis with Affymetrix U219 microarray
# Assay type: cell-based
# Details: 10 mg/ml
# Experimental: In the present study, the transcriptional effects (modulation of gene expression) of compounds 1, 2, 3 and 4 were evaluated on normal human dermal fibroblasts (NHDF) under basal conditions.
# More specifically, the comparative analysis of the different transcriptomic profiles was performed using an Affymetrix GeneAtlas platform and the human “full transcriptome” U219 chip, which includes 36,000 transcripts and variants.
# Fibroblasts were seeded in 24-well plates and cultured in culture medium for 24 hours. The medium was then replaced by assay medium and cells were incubated for further 24 hours. The medium was replaced by assay medium containing or not (control) the test compounds at different concentrations and the cells were preincubated for 24 hours. All experimental conditions were performed in triplicate. At the end of incubation, the culture supernatants were removed and the cells were washed in a phosphate buffered saline (PBS) solution and immediately frozen at −80° C.
# Before RNA extraction, the replicates were pooled. Total RNA was extracted from each sample using TriPure Isolation Reagent® according to the supplier's instructions. The amount and quality of total RNA were evaluated for all samples using capillary electrophoresis (Bioanalyzer 2100, Agilent technologies). From each RNA, a labeled and amplified anti-sens RNA (aRNA) was obtained using GeneChip 3′IVT PLUS Kit (Affymetrix). For each labeled and amplified aRNA sample the profiles were evaluated before and after fragmentation using capillary electrophoresis (Bioanalyzer 2100, Agilent technologies). Hybridization of fragmented aRNA onto Affymetrix® U219 chip (36,000 transcripts and variants) was performed in the GeneAtlas™ fluidics Affymetrix® hybridization station for 20 hours at 45° C. U219 chip was analyzed using the GeneAtlas™ Imaging station (Affymetrix®—resolution 2 μm) to generate fluorescence intensity data.
# Expression Console and Quality controls: data were normalized with the Expression Console (Affymetrix®) software using RMA algorithm. Then a quality control of the labeling and the hybridization was performed. Hybridization and labeling steps successfully passed the quality controls for these experiments.
# Data reduction, Excel file description: once normalized with Expression Console, data were transferred into a Microsoft Excel® file in order to go further into data reduction.
# Calculation and tools were added in order to rank and sort data, and finally to support data interpretation. Detection thresholds in terms of fold change were defined and applied on normalized data.
# Results are considered and presented or commented per gene (and not probe). A probe set is a collection of probes designed to interrogate a given sequence of a gene. For data interpretation, the most important relative expression value obtained with one probe is considered to be representative of the corresponding gene. The file contains the following data: • Relative expression (RE) for each sample, • Fold change calculation, • Gene information.
# [1] = relative expression adjusted to detection limit (<20), NHDF, 24 h
# [2] = signed value, Tables 13-14, NHDF
smiles,measurement,setting,value
C[C@H](NC(=O)[C@H](C)NC(=O)[C@@H](N)CCCCNCC(F)(F)[C@]1(O)O[C@H](CO)[C@H](O)[C@H](O)[C@H]1O)C(=O)O [Compound 1],"REadj2, PCYT2",[1],188.93
same,"REadj2, PLD1",[1],176.07
same,"REadj2, PTPLA",[1],498.96
same,"REadj2, SOAT1",[1],390.22
same,"REadj2, SREBF1",[1],519.22
same,"REadj2, POR","relative expression adjusted to detection limit (<20), NHDF, 24 h, probe set 11716114_x_at",256.70
same,"REadj2, HMGCS1","relative expression adjusted to detection limit (<20), NHDF, 24 h, probe set 11716987_a_at",875.52
same,"REadj2, EBP","relative expression adjusted to detection limit (<20), NHDF, 24 h, probe set 11717859_a_at",582.73
same,"REadj2, FDPS","relative expression adjusted to detection limit (<20), NHDF, 24 h, probe set 11718366_s_at",2391.43
same,"REadj2, MVK","relative expression adjusted to detection limit (<20), NHDF, 24 h, probe set 11719098_a_at",135.62
same,"REadj2, PGS1","relative expression adjusted to detection limit (<20), NHDF, 24 h, probe set 11724792_a_at",118.91
same,"REadj2, KDSR","relative expression adjusted to detection limit (<20), NHDF, 24 h, probe set 11730180_s_at",1037.81
same,"REadj2, KDSR","relative expression adjusted to detection limit (<20), NHDF, 24 h, probe set 11730181_s_at",549.40
same,"REadj2, GBA","relative expression adjusted to detection limit (<20), NHDF, 24 h, probe set 11736100_a_at",445.83
same,"REadj2, CHKA","relative expression adjusted to detection limit (<20), NHDF, 24 h, probe set 11736285_a_at",104.91
same,"REadj2, CHKA","relative expression adjusted to detection limit (<20), NHDF, 24 h, probe set 11736286_a_at",120.28
same,"REadj2, PHLDB2","relative expression adjusted to detection limit (<20), NHDF, 24 h, probe set 11737039_a_at",119.06
same,"REadj2, PHLDB2","relative expression adjusted to detection limit (<20), NHDF, 24 h, probe set 11737041_a_at",128.19
same,"REadj2, PHLDB2","relative expression adjusted to detection limit (<20), NHDF, 24 h, probe set 11737042_s_at",120.07
same,"REadj2, PHLDB2","relative expression adjusted to detection limit (<20), NHDF, 24 h, probe set 11737043_x_at",178.68
same,"REadj2, NPC1","relative expression adjusted to detection limit (<20), NHDF, 24 h, probe set 11743916_a_at",361.48
same,"REadj2, FADS1///MIR1908","relative expression adjusted to detection limit (<20), NHDF, 24 h, probe set 11745459_a_at",1633.20
same,"REadj2, NPC1","relative expression adjusted to detection limit (<20), NHDF, 24 h, probe set 11746723_a_at",192.21
same,"REadj2, MVK","relative expression adjusted to detection limit (<20), NHDF, 24 h, probe set 11747747_a_at",83.27
same,"REadj2, POR","relative expression adjusted to detection limit (<20), NHDF, 24 h, probe set 11748368_x_at",269.37
same,"REadj2, PGS1","relative expression adjusted to detection limit (<20), NHDF, 24 h, probe set 11748428_a_at",84.52
same,"REadj2, EBP","relative expression adjusted to detection limit (<20), NHDF, 24 h, probe set 11749332_x_at",445.85
same,"REadj2, GBA","relative expression adjusted to detection limit (<20), NHDF, 24 h, probe set 11750975_x_at",439.06
same,"REadj2, GBA","relative expression adjusted to detection limit (<20), NHDF, 24 h, probe set 11751085_a_at",451.06
same,"REadj2, GBA","relative expression adjusted to detection limit (<20), NHDF, 24 h, probe set 11751086_x_at",338.51
same,"REadj2, KDSR","relative expression adjusted to detection limit (<20), NHDF, 24 h, probe set 11751627_a_at",533.05
same,"REadj2, FADS1///MIR1908","relative expression adjusted to detection limit (<20), NHDF, 24 h, probe set 11752670_a_at",2502.62
same,"REadj2, GBA","relative expression adjusted to detection limit (<20), NHDF, 24 h, probe set 11753440_x_at",229.00
same,"REadj2, HMGCS1","relative expression adjusted to detection limit (<20), NHDF, 24 h, probe set 11754918_s_at",929.88
same,"REadj2, FADS1///MIR1908","relative expression adjusted to detection limit (<20), NHDF, 24 h, probe set 11755251_x_at",1571.10
same,"REadj2, FDPS","relative expression adjusted to detection limit (<20), NHDF, 24 h, probe set 11758249_s_at",2098.38
same,"Fold change, ABCA1",[2],2.112
same,"Fold change, ABHD5",[2],2.634
same,"Fold change, ACAT2",[2],2.124
same,"Fold change, ACSS2",[2],2.288
same,"Fold change, ADORA2B",[2],2.461
same,"Fold change, AKR1B1",[2],4.194
same,"Fold change, AKR1C1/AKR1C2",[2],2.597
same,"Fold change, ALDH1A3",[2],−3.504
same,"Fold change, ANGPT1",[2],−2.510
same,"Fold change, CD9",[2],2.337
same,"Fold change, CH25H",[2],−2.770
same,"Fold change, CHKA",[2],2.999
same,"Fold change, CLN3",[2],2.570
same,"Fold change, CYP19A1",[2],2.736
same,"Fold change, CYP51A1",[2],2.202
same,"Fold change, DHCR7",[2],3.675
same,"Fold change, DHCR24",[2],2.267
same,"Fold change, EBP",[2],2.685
same,"Fold change, EGR1",[2],−2.928
same,"Fold change, FADS1",[2],4.196
same,"Fold change, FADS2",[2],2.642
same,"Fold change, FDPS",[2],2.104
same,"Fold change, FGF2",[2],2.008
same,"Fold change, FOS",[2],−2.521
same,"Fold change, GBA",[2],3.016
same,"Fold change, GPER1",[2],2.031
same,"Fold change, GRP",[2],−2.699
same,"Fold change, HMGCR",[2],2.018
same,"Fold change, HMOX1",[2],5.168
same,"Fold change, HSD3B7",[2],2.132
same,"Fold change, HSD17B7",[2],2.443
same,"Fold change, HTR2B",[2],2.118
same,"Fold change, IDI1",[2],2.013
same,"Fold change, IGFBP2",[2],−2.717
same,"Fold change, INSIG1",[2],3.422
same,"Fold change, KDSR",[2],2.288
same,"Fold change, LDLR",[2],2.988
same,"Fold change, LPIN1",[2],2.458
same,"Fold change, LSS",[2],2.527
same,"Fold change, MAP3K8",[2],3.713
same,"Fold change, ME1",[2],2.548
same,"Fold change, MVD",[2],2.448
same,"Fold change, MVK",[2],2.082
same,"Fold change, NGF",[2],−2.648
same,"Fold change, NPC1",[2],6.532
same,"Fold change, NRG1",[2],−2.111
same,"Fold change, NSMAF",[2],2.624
same,"Fold change, NTN1",[2],2.832
same,"Fold change, PCYT2",[2],2.412
same,"Fold change, PDE5A",[2],−3.902
same,"Fold change, PDK4",[2],−2.280
same,"Fold change, PGS1",[2],2.410
same,"Fold change, PLAU",[2],−2.785
same,"Fold change, PLD1",[2],2.155
same,"Fold change, POR",[2],2.200
same,"Fold change, PTGS1",[2],3.893
same,"Fold change, RAB27A",[2],2.279
same,"Fold change, RUNX1",[2],2.441
same,"Fold change, S1PR1",[2],2.651
same,"Fold change, SCD",[2],7.772
same,"Fold change, SEMA3A",[2],−3.169
same,"Fold change, SERINC2",[2],2.635
same,"Fold change, SLC1A3",[2],4.715
same,"Fold change, SOAT1",[2],2.012
same,"Fold change, SOCS3",[2],3.734
same,"Fold change, SREBF1",[2],3.237
same,"Fold change, ST6GALNAC5",[2],2.080
same,"Fold change, STC1",[2],3.016
